Results on 31 compounds are retold here after patent publication US9376418B2, “Substituted pyridine spleen tyrosine kinase (SYK) inhibitors” (Merck Sharp & Dohme Corp., priority 2012, dated 2016).

The assay addresses T1, recombinant human GST-SYK (Homo sapiens, UniProt P43405).
T1 construct: purchased Carna Biosciences 08-176
The experiment in a line: Homogeneous Time-Resolved Fluorescence (HTRF) assay for the recombinant human Syk enzyme. In kind it is biochemical. To be noted: HTRF assay, recombinant human GST-SYK; IC50 given as class symbols; read-out: rhSYK Activity. The method, boiled down: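 HTRF read-out: Europium-anti-phosphotyrosine antibody (2 nM) plus SA-APC (70 nM) in EDTA-containing buffer quenched the reaction, and signal was read after 30 minutes. Kinase step used […], 250 nM biotinylated peptide, 25 μM ATP, 5 mM Mg, 45′ at room temperature.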
`Cc1cc(Nc2nccc(C(F)(F)F)n2)cc(-c2ccc(N[C@@H](Cc3c[nH]cn3)C(=O)O)nc2)c1` [Example 7.112, N-[5-(3-methyl-5-{[4-(trifluoromethyl)pyrimidin-2-yl]amino}phenyl)pyridin-2-yl]-L-histidine]: the IC50 was below 100 nM.
In the case of `Cc1cc(Nc2nccc(C(F)(F)F)n2)cc(-c2ccc(NCCCO)nc2)c1` [Example 7.113, 3-{[5-(3-methyl-5-{[4-(trifluoromethyl)pyrimidin-2-yl]amino}phenyl)pyridin-2-yl]amino}propan-1-ol] it was below 100 nM; in that of `Cc1cc(Nc2nccc(C(F)(F)F)n2)cc(-c2ccc(NC(C)(C)C#N)nc2)c1` [Example 7.114, 2-methyl-2-{[5-(3-methyl-5-{[4-(trifluoromethyl)pyrimidin-2-yl]amino}phenyl)pyridin-2-yl]amino}propanenitrile], below 100 nM; in that of `Cc1cc(Nc2nccc(C(F)(F)F)n2)cc(-c2ccc(NC(C)(C#N)C(C)(C)C)nc2)c1` (stereo not shown) [Example 7.115, 2,3,3-trimethyl-2-{[5-(3-methyl-5-{[4-(trifluoromethyl)pyrimidin-2-yl]amino}phenyl)pyridin-2-yl]amino}butanenitrile], 100 to 1000 nM.
For `Cc1cc(Nc2nccc(C(F)(F)F)n2)cc(-c2ccc(N3CCCC4(CCCCO4)C3)nc2)c1` (stereo not shown) [Example 7.116, N-{3-methyl-5-[6-(1-oxa-8-azaspiro[5.5]undec-8-yl)pyridin-3-yl]phenyl}-4-(trifluoromethyl)pyrimidin-2-amine] the value was 100 to 1000 nM; for `Cc1cc(Nc2nccc(C(F)(F)F)n2)cc(-c2ccc(NC(C)(C#N)CC(F)(F)F)nc2)c1` (stereo not shown) [Example 7.117, 4,4,4-trifluoro-2-methyl-2-{[5-(3-methyl-5-{[4-(trifluoromethyl)pyrimidin-2-yl]amino}phenyl)pyridin-2-yl]amino}butanenitrile], 100 to 1000 nM.
For `CCC(C)(C#N)Nc1ccc(-c2cc(C)cc(Nc3nccc(C(F)(F)F)n3)c2)cn1` (stereo not shown) [Example 7.118, 2-methyl-2-{[5-(3-methyl-5-{[4-(trifluoromethyl)pyrimidin-2-yl]amino}phenyl)pyridin-2-yl]amino}butanenitrile] the value was below 100 nM; for `Cc1cc(Nc2nccc(C(F)(F)F)n2)cc(-c2ccc(N3CCCC[C@H]3C(=O)O)nc2)c1` [Example 7.120, (2S)-1-[5-(3-methyl-5-{[4-(trifluoromethyl)pyrimidin-2-yl]amino}phenyl)pyridin-2-yl]piperidine-2-carboxylic acid], below 100 nM.
In the case of `Cc1cc(Nc2nccc(C(F)(F)F)n2)cc(-c2ccc(N3CCC[C@@]3(C)C(=O)O)nc2)c1` [Example 7.121, 2-methyl-1-[5-(3-methyl-5-{[4-(trifluoromethyl)pyrimidin-2-yl]amino}phenyl)pyridin-2-yl]-L-proline], the IC50 was below 100 nM.
In the case of `Cc1cc(Nc2nccc(C(F)(F)F)n2)cc(-c2cnc(NC(C)(C)C(=O)O)c(C(F)(F)F)c2)c1` [Example 7.123, 2-methyl-N-[5-(3-methyl-5-{[4-(trifluoromethyl)pyrimidin-2-yl]amino}phenyl)-3-(trifluoromethyl)pyridin-2-yl]alanine] it was below 100 nM.
In the case of `O=C1NCCC1Nc1ccc(-c2cccc(Nc3nccc(C(F)(F)F)n3)c2)cn1` (stereo not shown) [Example 7.124, 3-{[5-(3-{[4-(trifluoromethyl)pyrimidin-2-yl]amino}phenyl)pyridin-2-yl]amino}pyrrolidin-2-one] it was below 100 nM; in that of `CC(C)(Nc1ccc(-c2cccc(Nc3nccc(C(F)(F)F)n3)c2)cn1)C(=O)O` [Example 7.125, 2-methyl-N-[5-(3-{[4-(trifluoromethyl)pyrimidin-2-yl]amino}phenyl)pyridin-2-yl]alanine], below 100 nM; in that of `O=C(O)[C@@H]1CCN1c1ccc(-c2cccc(Nc3nccc(C(F)(F)F)n3)c2)cn1` [Example 7.126, (2S)-1-[5-(3-{[4-(trifluoromethyl)pyrimidin-2-yl]amino}phenyl)pyridin-2-yl]azetidine-2-carboxylic acid], below 100 nM.
On to `O=C(O)[C@@H]1CCN1c1ccc(-c2cc(F)cc(Nc3nccc(C(F)(F)F)n3)c2)cn1` [Example 7.127, (2S)-1-[5-(3-fluoro-5-{[4-(trifluoromethyl)pyrimidin-2-yl]amino}phenyl)pyridin-2-yl]azetidine-2-carboxylic acid], for which the IC50 was below 100 nM.
Consider `Cc1cc(Nc2nccc(C(F)(F)F)n2)cc(-c2ccc(NC3CNC(=O)C3)nc2)c1` (stereo not shown) [Example 7.128, 4-{[5-(3-methyl-5-{[4-(trifluoromethyl)pyrimidin-2-yl]amino}phenyl)pyridin-2-yl]amino}pyrrolidin-2-one], for which the IC50 is below 100 nM.
For `Cc1cc(Nc2nccc(C(F)(F)F)n2)cc(-c2ccc(NC3(C(=O)O)CC3)nc2)c1` [Example 7.129, 1-{[5-(3-methyl-5-{[4-(trifluoromethyl)pyrimidin-2-yl]amino}phenyl)pyridin-2-yl]amino}cyclopropanecarboxylic acid] the value was below 100 nM; for `Cc1cc(Nc2nccc(C(F)(F)F)n2)cc(-c2ccc(N3CCCCC3CC(=O)O)nc2)c1` (stereo not shown) [Example 7.132, {1-[5-(3-methyl-5-{[4-(trifluoromethyl)pyrimidin-2-yl]amino}phenyl)pyridin-2-yl]piperidin-2-yl}acetic acid], below 100 nM; for `Cc1cc(Nc2nccc(C(F)(F)F)n2)cc(-c2ccc(N3CC(C(=O)O)C3)nc2)c1` [Example 7.133, 1-[5-(3-methyl-5-{[4-(trifluoromethyl)pyrimidin-2-yl]amino}phenyl)pyridin-2-yl]azetidine-3-carboxylic acid], below 100 nM.
With `Cc1cc(Nc2nccc(C(F)(F)F)n2)cc(-c2ccc(N3CC[C@H](O)[C@H]3C(=O)O)nc2)c1` [Example 7.134, (3S)-3-hydroxy-1-[5-(3-methyl-5-{[4-(trifluoromethyl)pyrimidin-2-yl]amino}phenyl)pyridin-2-yl]-L-proline], the IC50 was below 100 nM.
For the compound `Cc1cc(Nc2nccc(C(F)(F)F)n2)cc(-c2ccc(N3CCCC(C(=O)O)C3)nc2)c1` (stereo not shown) [Example 7.135, 1-[5-(3-methyl-5-{[4-(trifluoromethyl)pyrimidin-2-yl]amino}phenyl)pyridin-2-yl]piperidine-3-carboxylic acid], the IC50 was below 100 nM.
In the case of `Cc1cc(Nc2nccc(C(F)(F)F)n2)cc(-c2ccc(N3CCC(C(=O)O)CC3)nc2)c1` [Example 7.136, 1-[5-(3-methyl-5-{[4-(trifluoromethyl)pyrimidin-2-yl]amino}phenyl)pyridin-2-yl]piperidine-4-carboxylic acid] it was below 100 nM; in that of `Cc1cc(Nc2nccc(C(F)(F)F)n2)cc(-c2ccc(N3CSCC3C(=O)O)nc2)c1` (stereo not shown) [Example 7.137, 3-[5-(3-methyl-5-{[4-(trifluoromethyl)pyrimidin-2-yl]amino}phenyl)pyridin-2-yl]-1,3-thiazolidine-4-carboxylic acid], below 100 nM.
`Cc1cc(Nc2nccc(C(F)(F)F)n2)cc(-c2ccc(NCC(=O)NCC(=O)O)nc2)c1` [Example 7.138, N-[5-(3-methyl-5-{[4-(trifluoromethyl)pyrimidin-2-yl]amino}phenyl)pyridin-2-yl]glycylglycine]: the IC50 was below 100 nM.
For `Cc1cc(Nc2nccc(C(F)(F)F)n2)cc(-c2ccc(N3CCN(CCCC(=O)O)CC3)nc2)c1` [Example 7.139, 4-{4-[5-(3-methyl-5-{[4-(trifluoromethyl)pyrimidin-2-yl]amino}phenyl)pyridin-2-yl]piperazin-1-yl}butanoic acid] the value was below 100 nM.
In the case of `Cc1cc(Nc2nccc(C(F)(F)F)n2)cc(-c2ccc(N3CCN(CC(=O)O)CC3)nc2)c1` [Example 7.140, {4-[5-(3-methyl-5-{[4-(trifluoromethyl)pyrimidin-2-yl]amino}phenyl)pyridin-2-yl]piperazin-1-yl}acetic acid] it was below 100 nM.
For `Cc1cc(Nc2nccc(C(F)(F)F)n2)cc(-c2ccc(N3CCC(C(=O)N4CCC(C(=O)O)CC4)CC3)nc2)c1` [Example 7.141, 1-({1-[5-(3-methyl-5-{[4-(trifluoromethyl)pyrimidin-2-yl]amino}phenyl)pyridin-2-yl]piperidin-4-yl}carbonyl)piperidine-4-carboxylic acid] the value was below 100 nM; for `Cc1cc(Nc2nccc(C(F)(F)F)n2)cc(-c2ccc(N[C@H]3CC[C@@H](C(=O)O)CC3)nc2)c1` [Example 7.142, cis-4-{[5-(3-methyl-5-{[4-(trifluoromethyl)pyrimidin-2-yl]amino}phenyl)pyridin-2-yl]amino}cyclohexanecarboxylic acid], below 100 nM; for `Cc1cc(Nc2nccc(C(F)(F)F)n2)cc(-c2ccc(N[C@H]3CC[C@H](C(=O)O)CC3)nc2)c1` [Example 7.143, trans-4-{[5-(3-methyl-5-{[4-(trifluoromethyl)pyrimidin-2-yl]amino}phenyl)pyridin-2-yl]amino}cyclohexanecarboxylic acid], below 100 nM.
Turning to `Cc1cc(Nc2nccc(C(F)(F)F)n2)cc(-c2ccc(NC[C@H]3CC[C@H](C(=O)O)CC3)nc2)c1` [Example 7.144, trans-4-({[5-(3-methyl-5-{[4-(trifluoromethyl)pyrimidin-2-yl]amino}phenyl)pyridin-2-yl]amino}methyl)cyclohexanecarboxylic acid], the IC50 is below 100 nM.
In the case of `Cc1cc(Nc2nccc(C(F)(F)F)n2)cc(-c2ccc(N3CC(C4CCC(C(=O)O)CC4)C3)nc2)c1` (stereo not shown) [Example 7.145, 4-{1-[5-(3-methyl-5-{[4-(trifluoromethyl)pyrimidin-2-yl]amino}phenyl)pyridin-2-yl]azetidin-3-yl}cyclohexanecarboxylic acid] it was below 100 nM; in that of `Cc1cc(Nc2nccc(C(F)(F)F)n2)cc(-c2ccc(N3CC(C4CCCC(C(=O)O)C4)C3)nc2)c1` (stereo not shown) [Example 7.146, 3-{1-[5-(3-methyl-5-{[4-(trifluoromethyl)pyrimidin-2-yl]amino}phenyl)pyridin-2-yl]azetidin-3-yl}cyclohexanecarboxylic acid], below 100 nM.
